The source of these data is patent publication US6875420B1, “Method of ultrasound imaging” (Amersham Health AS, priority 1991, dated 2005).

Where two headings read alike, the source gives them in different places. Bounds are passed on as bounds.

For series [1] the following is noted: cited from earlier work; for DENSITY: gas density; for SOLUBILITY: in water, fluorocarbons estimated by extrapolation relative to perfluoro-n-pentane; for boiling point: standard pressure conditions.
A short description of series [2]: Persistence of microbubbles in water at 37° C. observed by ultrasound scan. Type of series: physicochemical. The procedure: The relationship between a calculated Q-value for a given gas and the persistence of microbubbles of that gas was studied to determine what Q-value would be a lower limit for utility as an ultrasound contrast agent. […] Five mL of a 20% sorbitol solution was taken up in a 10 mL syringe connected to a three way stopcock. A 10 mL syringe, containing 2 cubic centimeters of the subject gas (or low boiling liquid, as pertinent) was attached to the syringe containing the sorbitol solution. The sorbitol and gas or liquid are rapidly mixed 25-times to create a suspension of microbubbles or dispersed liquid and then rapidly added to the water. […] Ultrasound scans before, during and after the addition were made with a Hewlett-Packard Model Sonos 500 ultrasound scanner operating at 5 MHz. The time during which the microbubbles could be observed was recorded. […] The experimental Q-values were obtained by dividing the measured persistence of a given gas by the measured persistence for air.

The nature of series [3]: Physical properties of gases: density, solubility in water, diffusivity, molar volume, boiling point. Type of series: physicochemical. The following applies: (*) estimated from the known density of homologous fluorocarbons.
Description: Different methods for determining or estimating values for the individual parameters of density, diffusivity, and solubility may be needed depending on the chemical structure of the gas. Values for these parameters may or may not be available from known scientific literature sources such as the Gas Encyclopedia or the tabulations published by the American Chemical Society. Values for the density of most gases are readily available from sources such as the Handbook of Chemistry and Physics. […] Additionally, the solubility in water and molar volume of some gases has been measured with accuracy. In many cases however, calculations for the numerical values for molar volume and solubility may need to be calculated or estimated to provide the data used to determine the value of the Q coefficient for an individual gas by the method described above.
To determine the Q value for several gases, the solubility, molar volume and density of the individual gases are determined and the values are substituted into Equations (7) or (8) above.
This method for estimating the gas solubility of fluorocarbons uses extrapolation of the experimental data of Kabalnov AS, Makarov KN, and Scherbakova OV. […] For a homologous series of non-branched fluorocarbons, the gas solubility may be estimated by increasing or reducing this value by a factor of about 8.0 for each increase or reduction in the number of additional —CF2— groups present in the molecule.
The molar volume of a gas can be estimated by identifying the number and type of atoms that make up the molecule of gas in question. By determining the number and type of atoms present in the molecule and how the individual atoms are bound to each other, known values may be applied for the molecular volume of the individual atoms. By considering the contribution of each individual atom and its frequency of occurrence, one may calculate the total molar volume for a particular gas molecule.
[4] abbreviates: about 100 micron microbubbles, 20% sorbitol, added to water at 37° C., 5 MHz ultrasound.

Regarding `[Ar]` [Argon], the DENSITY in series [1] is reported as 1.78 kg/m3.
As to `O=C=O` [Carbon Dioxide], in series [1], the DENSITY was 1.98 kg/m3 and the SOLUBILITY was 33000 µmol/L.
For the molecule `FC(F)(F)C(F)(F)C(F)(F)C(F)(F)F` [Decafluorobutane], in series [1], the DENSITY is reported as 11.21 kg/m3 and the SOLUBILITY is 32 µmol/L.
`FC(F)(F)C(F)(F)C(F)(F)C(F)(F)C(F)(F)F` [Dodecafluoropentane]: in series [1], the water solubility is reported as 4.0×10^−6 moles per liter, the DENSITY is given as 12.86 kg/m3 and the boiling point was 29.5 degrees Centigrade. Further, in series [2] (setting [4]), the PERSISTENCE of microbubbles was above 5760 min.
As to `CC` [Ethane], the DENSITY in series [1] is listed as 1.05 kg/m3.
For `CCOCC` [Ethyl ether], in series [1], the DENSITY is reported as 2.55 kg/m3 and the SOLUBILITY is on record as 977,058 micromoles/liter. In addition, the PERSISTENCE of microbubbles in series [2] (setting [4]) turned out to be 0.1 min.
Take `[He]` [Helium]: in series [1], the DENSITY is 0.18 kg/m3 and the SOLUBILITY was 388 µmol/L. For the same molecule, the PERSISTENCE of microbubbles in series [2] (setting [4]) was 2.0 min.
Turning to `FC(F)(F)C#CC(F)(F)F` [Hexafluoro-2-butyne], in series [3], the DENSITY is given as 9 (*) kg/m3.
The same measure, in the same setting: the same measure for `FC(F)=C(F)C(F)=C(F)F` [Hexafluorobuta-1,3-diene]: 9 (*) kg/m3.
For the molecule `FC(F)(F)C(F)(F)F` [Hexafluoroethane], the DENSITY in series [1] is on record as 8.86 kg/m3.
Consider `[Kr]` [Krypton], for which the DENSITY in series [1] is reported as 3.8 kg/m3.
Take `[Ne]` [Neon]: in series [1], the DENSITY was 0.90 kg/m3 and the SOLUBILITY was 434 µmol/L.
Regarding `FC(=C(F)C(F)(F)F)C(F)(F)F` [Octafluoro-2-butene], the DENSITY in series [3] was 10 (*) kg/m3.
`FC1(F)C(F)(F)C(F)(F)C1(F)F` [Octafluorocyclobutane]: in series [1], the DENSITY is 9.97 kg/m3 and the SOLUBILITY was 220 µmol/L.
Take `FC(F)(F)C(F)(F)C(F)(F)F` [Octafluoropropane]: in series [1], the DENSITY is recorded as 10.3 kg/m3 and the SOLUBILITY is 260 µmol/L.
As for `CCCCC` [Pentane], the SOLUBILITY in series [1] was 1674 µmol/L. This molecule also displayed a PERSISTENCE of microbubbles in series [2] (setting [4]) of 20.6 min.
As for `FC(F)(F)C(F)(F)C(F)(F)C(F)(F)C(F)(F)C(F)(F)F` [Perfluorohexane, reference compound], in series [1], the boiling point was 59-60 degrees Centigrade.
Turning to `CCC` [Propane], the DENSITY in series [1] is recorded as 2.02 kg/m3. This molecule also came in with a PERSISTENCE of microbubbles in series [2] (setting [4]) of 3.2 min.
Regarding `FS(F)(F)(F)(F)F` [Sulfur Hexafluoride], in series [1], the DENSITY is on record as 5.48 kg/m3.
Regarding `[Xe]` [Xenon], the DENSITY in series [1] is on record as 5.90 kg/m3.
On to `CCCC` [n-Butane], for which, in series [1], the DENSITY is recorded as 2.05 kg/m3 and the SOLUBILITY was 6696 µmol/L. Further, the PERSISTENCE of microbubbles in series [2] is listed as 1.5 min (2.6).
Regarding Hexafluoropropane, in series [1], the DENSITY is on record as 10.3 kg/m3.
